This passage reports IC50 results from patent publication US6384080B1, “Anthranilic acid derivatives as inhibitors of the cGMP-phosphodiesterase” (Fujisawa Pharmaceutical Co., Ltd., priority 1998, dated 2002).

Structures can show the parent of a compound that is named as a salt.

As usually defined, the IC50 is the midpoint of a concentration-inhibition curve.

The target in one experiment is T1, human platelet PDE-V (Homo sapiens, UniProt O76074).
T1 construct: Human platelet cGMP-PDE was separated from other isozymes in human platelets; from tissue; host or cells: human platelets
The experiment in a line: cGMP-Phosphodiesterase (PDE) assay, enzymatic inhibitory test. In kind it is biochemical.
Settings: not given
As to the method:
cGMP-Phosphodiesterase (PDE) Assay
Human platelet cGMP-PDE was separated from other isozymes in human platelets by a modification of the method of Thompson et. al. (see Cyclic Nucleotide Phosphodiesterase (PDE), in Methods of Enzymatic analysis, Vol 4, p127-234, 1984). In enzyme inhibition assays, the test compounds were dissolved in DMSO and then diluted with assay buffer (50 mM Tris-HCl, 0.077 mg/ml dithiothreitol and 10 mg/ml snake venom, 1 mM EGTA, pH 8.0), at final concentrations ranging from 10^−10 to 10^−6 M. Assays were performed at 0.1 μM substrate ([^3H]-cGMP) concentration, at 30° C. for 10 minutes using enzyme dilutions which gave 10-20% hydrolysis of substrate. Each assay was initiated by addition of substrate and terminated by addition of anion exchange resin (Dowex® 1-X8, 250 mg/mg) followed by centrifugation for 10 minutes (3000 rpm, at 4° C.). Radioactivity of supernatant (^3H-GMP) was assayed by liquid scintillation counting.
For `O=C(NCc1ccc([N+](=O)[O-])cc1)c1cc([N+](=O)[O-])ccc1NC1CCCC1` [2-(Cyclopentylamino)-5-nitro-N-(4-nitrobenzyl)benzamide], the IC50 was below 10 nM.

`O=C(NCc1ccc2c(c1)OCO2)c1cc([N+](=O)[O-])ccc1NC(CCl)CCl` [2-[2-Chloro-1-(chloromethyl)ethylamino]-5-nitro-N-(1,3-benzodioxol-5-ylmethyl)benzamide]: the concentration for half-maximal inhibition (IC50) is below 10 nM. For the molecule `CC[C@H](CO)Nc1ccc([N+](=O)[O-])cc1C(=O)NCc1ccc(Cl)c([N+](=O)[O-])c1` [(R)-N-(4-Chloro-3-nitrobenzyl)-2-[1-(hydroxymethyl)propylamino]-5-nitrobenzamide], the IC50 was below 10 nM.

The experiment is the same for the next values; noted with them: human platelet PDE-V; 0.1 μM [3H]-cGMP substrate, 30° C., 10 minutes; read-out: Inhibitory activity IC50.
In the case of `COc1ccc(CNC(=O)c2cc([N+](=O)[O-])ccc2N[C@H]2CC[C@H](N)CC2)cc1OC` [2-[(trans-4-Aminocyclohexyl)amino]-N-(3,4-dimethoxybenzyl)-5-nitrobenzamide], the IC50 is below 10 nM. On to `O=C(NCc1ccccc1)c1cc([N+](=O)[O-])ccc1NC1CCC1` [N-Benzyl-2-(cyclobutylamino)-5-nitrobenzamide], for which the IC50 was below 10 nM. Consider `COc1ccc(CNC(=O)c2cc([N+](=O)[O-])ccc2NC2COC(=O)OC2)cc1OC` [N-(3,4-dimethoxybenzyl)-5-nitro-2-(2-oxo-1,3-dioxan-5-ylamino)benzamide], for which the half-maximal inhibitory concentration (IC50) was below 10 nM. For the molecule `O=C(NCc1cccc(Cl)c1)c1cc([N+](=O)[O-])ccc1NC1CCCC1` [N-(3-Chlorobenzyl)-2-(cyclopentylamino)-5-nitrobenzamide], the 50% inhibitory concentration (IC50) was below 10 nM. With `CC[C@H](CO)Nc1ccc([N+](=O)[O-])cc1C(=O)NCc1ccc2c(c1)OCO2` [(R)-2-(1-Ethyl-2-hydroxyethylamino)-5-nitro-N-(1,3-benzodioxol-5-ylmethyl)benzamide], the IC50 was below 10 nM. Consider `COc1ccc(CNC(=O)c2cc([N+](=O)[O-])ccc2N[C@H](C(N)=O)[C@@H](C)O)cc1OC` [2-[(1S, 2R)-1-(Carbamoyl)-2-hydroxypropylamino]-N-(3,4-dimethoxybenzyl)-5-nitrobenzamide], for which the half-inhibitory concentration (IC50) is below 10 nM.

Consider `O=C(OC1CCC(Nc2ccc([N+](=O)[O-])cc2C(=O)NCc2ccccc2)C1)c1ccccc1` (stereo not drawn) [2-[3-(Benzoyloxy)cyclopentylamino]-N-benzyl-5-nitrobenzamide], for which the half-inhibitory concentration (IC50) is below 10 nM. Still for that read-out and setting: for `O=C(NCc1ccccc1)c1cc([N+](=O)[O-])ccc1NC1CC1` [N-Benzyl-2-(cyclopropylamino)-5-nitrobenzamide] the value was below 10 nM. With `COc1ccc(CNC(=O)c2cc([N+](=O)[O-])ccc2NC2CCN(C(=O)OC(C)(C)C)CC2)cc1OC` [2-[1-(tert-Butoxycarbonyl)piperidin-4-ylamino]-N-(3,4-dimethoxybenzyl)-5-nitrobenzamide], the half-maximal inhibitory concentration (IC50) was below 10 nM. Same read-out and setting: for `O=C(NCc1ccc(C(F)(F)F)cc1)c1cc([N+](=O)[O-])ccc1NC1CCCC1` [2-(Cyclopentylamino)-5-nitro-N-[4-(trifluoromethyl)benzyl]benzamide] the value was below 10 nM; for `O=C(NCc1ccco1)c1cc([N+](=O)[O-])ccc1NC1CCCC1` [2-(Cyclopentylamino)-N-furfuryl-5-nitrobenzamide], below 10 nM. On the same count and under the same terms, for `COC(=O)C1CCC(Nc2ccc([N+](=O)[O-])cc2C(=O)NCc2ccc3c(c2)OCO3)CC1` (stereo not drawn) [2-[4-(Methoxycarbonyl)cyclohexylamino]-5-nitro-N-(1,3-benzodioxol-5-ylmethyl)benzamide] the value was below 10 nM. Consider `O=C1CCC(Nc2ccc([N+](=O)[O-])cc2C(=O)NCc2ccc3c(c2)OCO3)CC1` [5-nitro-2-(4-oxocyclohexylamino)-N-(1,3-benzodioxol-5-ylmethyl)benzamide], for which the IC50 is below 10 nM.

Regarding `COc1ccc(CNC(=O)c2cc([N+](=O)[O-])ccc2NC2CCN(C(=NC(=O)OC(C)(C)C)NC(=O)OC(C)(C)C)CC2)cc1OC` [2-[1-[1,3-Bis(tert-butoxycarbonyl)amidino]piperidin-4-ylamino]-N-(3,4-dimethoxybenzyl)-5-nitrobenzamide], the 50% inhibitory concentration (IC50) was below 10 nM. Still for that read-out and setting: the same measure for `CN1CCC(Nc2ccc([N+](=O)[O-])cc2C(=O)NCc2ccc3c(c2)OCO3)CC1` [2-(1-methyl-4-piperidinylamino)-5-nitro-N-(1,3-benzodioxol-5-ylmethyl)benzamide]: below 10 nM; for `COc1cc(CNC(=O)c2cc([N+](=O)[O-])ccc2NC(CO)CO)ccc1C` [2-[2-Hydroxy-1-hydroxymethyl)ethylamino]-N-(3-methoxy-4-methylbenzyl)-5-nitrobenzamide]: below 10 nM; for `CC(C)(C)OC(=O)N1CCC(Nc2ccc([N+](=O)[O-])cc2C(=O)NCc2ccc3c(c2)OCO3)CC1` [2-[1-(tert-Butoxycarbonyl)-4-piperidinylamino]-5-nitro-N-(1,3-benzodioxol-5-ylmethyl)benzamide]: below 10 nM. For the molecule `O=C(NCc1ccc2c(c1)OCO2)c1cc([N+](=O)[O-])ccc1N[C@@H]1CCOC1` [(R)-5-Nitro-2-(tetrahydro-3-furanylamino)-N-(1,3-benzodioxol-5-ylmethyl)benzamide], the IC50 was below 10 nM. For the molecule `O=C(NCc1cccs1)c1cc([N+](=O)[O-])ccc1NC1CCCC1` [2-(Cyclopentylamino)-5-nitro-N-(2-thienylmethyl)benzamide], the IC50 is below 10 nM.

Consider `COc1ccc(CNC(=O)c2cc([N+](=O)[O-])ccc2NC2CCCC2)cc1` [2-(Cyclopentylamino)-N-(4-methoxybenzyl)-5-nitrobenzamide], for which the concentration for half-maximal inhibition (IC50) was below 10 nM. For `COc1ccc(CNC(=O)c2cc([N+](=O)[O-])ccc2NC(CO)CO)cc1F` [N-(3-Fluoro-4-methoxybenzyl)-2-[2-hydroxy-1-(hydroxynethyl)ethylamino]-5-nitrobenzamide], the IC50 was below 10 nM. Same read-out and setting: the same measure for `O=C(NCC1CCCCC1)c1cc([N+](=O)[O-])ccc1N[C@H]1CC[C@@H](O)CC1` [N-cyclohexylmethyl-2-(cis-4-hydroxycyclohexylamino)-5-nitrobenzamide]: below 10 nM; for `CSc1ccc(CNC(=O)c2cc([N+](=O)[O-])ccc2N[C@H]2CC[C@H](O)CC2)cc1` [2-(trans-4-Hydroxycyclohexyl)amino-N-[4-(methylthio)benzy]-5-nitrobenzamide]: below 10 nM. As for `NC(=O)C1CCC(Nc2ccc([N+](=O)[O-])cc2C(=O)NCc2ccc3c(c2)OCO3)CC1` (stereo not drawn) [2-(4-carbamoylcyclohexylamino)-5-nitro-N-(1,3-benzodioxol-5-ylmethyl)benzamide], the IC50 was below 10 nM. As for `O=C(NCc1ccc(Br)cc1)c1cc([N+](=O)[O-])ccc1NC1CCCC1` [N-(4-Bromobenzyl)-2-(cyclopentylamino)-5-nitrobenzamide], the IC50 is below 10 nM. Consider `COc1ccc(CNC(=O)c2cc([N+](=O)[O-])ccc2N[C@H]2CC[C@H](NC(=N)N)CC2)cc1OC` [N-(3,4-dimethoxybenzyl)-2-(trans-4-guanidinocyclohexylamino)-5-nitrobenzamide hydrochloride], for which the IC50 is below 10 nM. As for `O=C(NCc1ccc2c(c1)OCO2)c1cc([N+](=O)[O-])ccc1NC1CCSCC1` [5-Nitro-N-(1,3-benzodioxol-5-ylmethyl)-2-(tetrahydro-2H-thiopyran-4-ylamino)benzamide], the IC50 is below 10 nM.

As to `O=C(NCc1ccc(F)c(F)c1)c1cc([N+](=O)[O-])ccc1NC1CCCC1` [2-(Cyclopentylamino)-N-(3,4-difluorobenzyl)-5-nitrobenzamide], the half-maximal inhibitory concentration (IC50) is below 10 nM. With `O=C(NCc1ccc(F)cc1)c1cc([N+](=O)[O-])ccc1NC1CCCC1` [2-(Cyclopentylamino)-N-(4-fluorobenzyl)-5-nitrobenzamide], the IC50 is below 10 nM. Regarding `COc1ccc(CNC(=O)c2cc(Br)ccc2NC2CCCC2)cc1Cl` [5-bromo-N-(3-chloro-4-methoxybenzyl)-2-(cycloperitylamino)benzamide hydrochloride], the IC50 is below 10 nM. For `O=C(NCc1ccc(Cl)c(Cl)c1)c1cc([N+](=O)[O-])ccc1NC1CCCC1` [2-(Cyclopentylamino)-N-(3,4-dichlorobenzyl)-5-nitrobenzamide], the half-inhibitory concentration (IC50) is below 10 nM. Consider `O=C(NCc1ccccc1)c1cc([N+](=O)[O-])ccc1NC1CCC(O)C1` (stereo not drawn) [N-Benzyl-2-(3-hydroxycyclopentylamino)-5-nitrobenzamide], for which the IC50 is below 10 nM. Consider `COCCOc1ccc(CNC(=O)c2cc([N+](=O)[O-])ccc2N[C@H]2CC[C@@H](O)CC2)cc1OC` [2-(cis-4-Hydroxycyclohexylamino)-N-[3-methoxy-4-(2-methoxyethoxy)benzyl]-5-nitrobenzamide], for which the half-maximal inhibitory concentration (IC50) is below 10 nM. As to `COc1ccc(CNC(=O)c2cc([N+](=O)[O-])ccc2NC2COC(C)(C)OC2)cc1OC` [N-(3,4-dimethoxybenzyl)-2-(2,2-dimethyl-1,3-dioxan-5-ylamino)-5-nitrobenzamide], the 50% inhibitory concentration (IC50) is below 10 nM. For `COc1ccc(CNC(=O)c2cc([N+](=O)[O-])ccc2N[C@H]2CC[C@H](NC(=NC(=O)OC(C)(C)C)NC(=O)OC(C)(C)C)CC2)cc1OC` [2-{trans-4-[2,3-bis(tert-butoxycarbonyl)guanidino]cyclohexylamino}-N-(3,4-dimethoxybenzyl)-5-nitrobenzamide], the 50% inhibitory concentration (IC50) is below 10 nM. Consider `O=C(NCc1ccc2c(c1)OCO2)c1cc([N+](=O)[O-])ccc1NC1(CO)CCCC1` [2-[1-(Hydroxymethyl)cyclopentylamino]-5-nitro-N-(1,3-benzodioxol-5-ylmethyl)benzamide], for which the IC50 was below 10 nM.
